Assay results reported in patent US20130029973A1, “TETRAHYDROBENZOTHIOPHENE COMPOUND” (ASTELLAS PHARMA INC., priority 2010, published 2013).

How the values were obtained:
rat NPT-IIb = biological target: T1, rat NPT-IIb (Rattus norvegicus, UniProt Q9JJ09); experiment: 33P phosphate uptake inhibiting action of rat NPT-IIb expressing cell; assay type: cell-based; details: HEK293; evaluation concentration 1 μM; 33P uptake in rat NPT-IIb stably expressing 293 cells; read-out: Rat NPT-IIb inhibitory rate (%)
T1 construct: rat NPT-IIb ORF was cloned into p3×FLAG-CMV-10; 3xFLAG (N); expressed in transfected cells
T1 sequence (Q9JJ09 1-695): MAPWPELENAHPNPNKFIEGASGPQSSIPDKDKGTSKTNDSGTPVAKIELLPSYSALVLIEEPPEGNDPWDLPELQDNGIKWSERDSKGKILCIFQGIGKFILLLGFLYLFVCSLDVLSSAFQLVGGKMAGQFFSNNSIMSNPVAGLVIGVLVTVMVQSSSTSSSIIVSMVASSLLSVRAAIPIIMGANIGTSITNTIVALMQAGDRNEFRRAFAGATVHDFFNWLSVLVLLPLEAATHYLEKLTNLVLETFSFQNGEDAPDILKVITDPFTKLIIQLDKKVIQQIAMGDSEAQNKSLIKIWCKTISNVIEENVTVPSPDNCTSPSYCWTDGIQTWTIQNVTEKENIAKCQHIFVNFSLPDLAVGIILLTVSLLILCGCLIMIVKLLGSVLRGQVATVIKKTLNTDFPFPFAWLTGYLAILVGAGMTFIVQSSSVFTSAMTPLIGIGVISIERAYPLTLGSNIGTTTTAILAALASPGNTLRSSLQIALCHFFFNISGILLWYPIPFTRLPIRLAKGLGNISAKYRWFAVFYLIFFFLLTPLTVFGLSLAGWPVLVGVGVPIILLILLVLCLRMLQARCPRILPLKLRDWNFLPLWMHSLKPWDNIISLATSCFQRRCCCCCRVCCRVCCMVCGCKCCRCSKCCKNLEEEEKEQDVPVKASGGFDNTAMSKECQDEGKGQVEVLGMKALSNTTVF
Text: Test Example 1: ^33P Phosphate Uptake Inhibiting Action of Rat NPT-IIb Expressing Cell
Preparation of Rat NPT-IIb Expressing Cell
Using rat small intestine cDNA library as a template, rat NPT-IIb ORF was cloned into p3×FLAG-CMV-10 by PCR according to a standard method. Then, the cloned rat NPT-IIb expressing plasmid was transfected into 293 cells, and G418 was used to obtain a rat NPT-11b-stably expressing cell line.
Evaluation System on Inhibition of Phosphate Uptake into Rat NPT-IIb Expressing Cell
The rat NPT-Hb expressing cells were seeded into a 96-well plate and incubated overnight. The medium was taken out and washed with buffer A (137 mM N-methyl-D-glucamine, 5.4 mM KCl, 2.8 mM CaCl2, 1.2 mM MgCl2, 10 mM HEPES (adjusted to pH 7.4 with HCl)), and then buffer B (137 mM NaCl, 5.4 mM KCl, 2.8 mM CaCl2, 1.2 mM MgCl2, 0.1 mM KH2PO4, 10 mM HEPES (adjusted to pH 7.4 with KOH)) was added thereto. Then, a compound having 10-fold higher concentration relative to the evaluation concentration was prepared by dilution with the buffer B and added thereto, followed by incubation in CO2 incubator. Buffer B supplemented 50 μCi/mL ^33P was added thereto, followed by further incubation in a CO2 incubator. After the reaction, the buffer was taken out and the cells were washed with buffer C (137 mM NaCl, 10 mM Tris/HCl pH 7.2). Then, Microscint-20 was added thereto and ^33P uptake was measured by using TopCount. The inhibitory rate was determined according to the following equation.
Inhibitory rate (%)=(1−(^33P uptake of drug-treated well)/(^33P uptake of DMSO-added well))×100
For several compounds of the formula (I), rat NPT-11b inhibitory activity at a pharmacological evaluation concentration of 1 μM is shown in Table 1. Here, Ex represents Example No. as denoted below (this shall apply hereinafter).

[1] = test system: orally 32P phosphate loaded rats; experiment: Blood radioactivity increase inhibiting action in orally 32P phosphate loaded rats (phosphate absorption inhibitory action); assay type: in vivo; details: Rattus norvegicus, 0.5 h; 3 mg/kg oral, male Wistar rats; from serum radioactivity AUC0-30min vs control group; read-out: Phosphate absorption inhibitory rate (%)
Method: Blood Radioactivity Increase Inhibiting Action in Orally ^32P Phosphate Loaded Rats (Phosphate Absorption Inhibitory Action)
Male Wistar rats (6 to 7 weeks old) were fasted for 24 hours and used as experimental animals. The compound was dissolved or suspended with a solvent, and was used at a concentration of 0.6 mg/mL. The compound-administered animals were forcibly orally administered with the compound at a dose of 3 mg/kg. Control-group animals were administered a solvent containing no compound at a dose of 5 mL/kg. After 5 minutes from administration of the compound or from administration of the solvent, a ^32P-containing phosphate solution (8.3 mM NaH2PO4) was orally administered thereto at a dose of 7.2 mL/kg. After 15 minutes and 30 minutes, the blood was taken from the orbital venous plexus and the serum was collected. Radioactivity in 0.1 mL of the serum was measured by a liquid scintillation counter. AUC0-30min calculated from the measured counts was considered as a phosphate absorption amount. The phosphate absorption inhibitory rate was determined from the AUC0-30min value according to the following equation.
Phosphate absorption inhibitory rate (%)=(1−Phosphate absorption count of compound-administered group/Phosphate absorption count of control group)×100
As a result, it was confirmed that several compounds of the formula (I) have an intestinal phosphate absorption inhibitory action. With the several compounds of the formula (I), the phosphate absorption inhibitory rates at a pharmacological evaluation dose of 3 mg/kg are shown in Table 2.

SMILES	inhibition at 1 µM (rat NPT-IIb) [%]	inhibition in vivo at 3 mg/kg [1] [%]	melting point [°C]
O=C(O)CCCN(C1CC1)S(=O)(=O)c1cccc(C(=O)Nc2sc3c(c2C(=O)Nc2ccc(CCc4ccc(C(=O)O)cc4)cc2)CCCC3)c1 [Example 12, 4-{2-[4-({[2-({3-[(3-carboxypropyl)(cyclopropyl)sulfamoyl]benzoyl}amino)-4,5,6,7-tetrahydro-1-benzothiophen-3-yl]carbonyl}amino)phenyl]ethyl}benzoic acid]	76	≥ 60	250.8
CCN([C@H]1CC[C@H](C(=O)O)CC1)S(=O)(=O)c1cccc(C(=O)Nc2sc3c(c2C(=O)Nc2ccc(CCc4ccc(C(=O)O)cc4)cc2)CCCC3)c1 [Example 2, 4-{2-[4-({[2-({3-[(trans-4-carboxycyclohexyl)(ethyl)sulfamoyl]benzoyl}amino)-4,5,6,7-tetrahydro-1-benzothiophen-3-yl]carbonyl}amino)phenyl]ethyl}benzoic acid]	83	≥ 60	262.8
